In patent publication US8367700B2, “Substituted 4-(1.2,3,4-tetrahydroisoquinolin-2-yl)-4-oxobutyric acid amide as KCNQ2/3 modulators” (Gruenenthal GmbH, priority 2008, dated 2013):

Columns and labels:
[1] = biological target: T1, hKCNQ2/3 (Homo sapiens, UniProt O43525+O43526); assay: Fluorescence assay using a voltage-sensitive dye (fluorimetry); assay type: cell-based; set-up: expressed in transfected cells; host or cells: CHO-K1; details: CHO-K1 cells expressing KCNQ2/3
Description: Pharmacological Experiments Fluorescence Assay Using a Voltage-Sensitive Dye
Human CHO-K1 cells expressing KCNQ2/3 channels are cultivated adherently at 37° C., 5% CO2 and 95% humidity in cell culture bottles (e.g. 80 cm^2 TC flasks, Nunc) with DMEM-high glucose (Sigma Aldrich, D7777) including 10% FCS (PAN Biotech, e.g. 3302-P270521) or alternatively MEM Alpha Medium (1×, liquid, Invitrogen, #22571), 10% foetal calf serum (FCS) (Invitrogen, #10270-106, heat-inactivated) and the necessary selection antibiotics.
Before being sown out for the measurements, the cells are washed with a 1×DPBS buffer without Ca^2+/Mg^2+ (e.g. Invitrogen, #14190-094) and detached from the bottom of the culture vessel by means of Accutase (PAA Laboratories, #L11-007) (incubation with Accutase for 15 min at 37° C.). The cell count then present is determined using a CASY™ cell counter (TCC model, Scharfe System) in order subsequently to apply 20,000 to 30,000 cells/well/100 μl of the described nutrient medium, depending on density optimisation for the individual cell line, to 96-well measuring plates of the Corning™ CeIIBIND™ type (flat clear-bottom black polystyrene microplates, #3340).
Incubation is then carried out for one hour at room temperature, without gassing or adjusting the humidity, followed by incubation for 24 hours at 37° C., 5% CO2 and 95% humidity.
The voltage-sensitive fluorescent dye from the Membrane Potential Assay Kit (Red™ bulk format part R8123 for FLIPR, MDS Analytical Technologies™) is prepared by dissolving the contents of a vessel of Membrane Potential Assay Kit Red Component A in 200 ml of extracellular buffer (ES buffer, 120 mM NaCl, 1 mM KCl, 10 mM HEPES, 2 mM CaCl2, 2 mM MgCl2, 10 mM glucose; pH 7.4). After removal of the nutrient medium, the cells are washed with 200 μl of ES buffer, then covered with a layer of 100 μl of the dye solution prepared above and incubated for 45 min at room temperature with exclusion of light.
The fluorescence measurements are carried out with a BMG Labtech FLUOstar™ BMG Labtech NOVOstar™ or BMG Labtech POLARstar™ instrument (525 nm excitation, 560 nm emission, bottom-read mode). After incubation of the dye, 50 μl of the substances to be tested in the desired concentrations, or 50 μl of ES buffer for control purposes, are introduced into separate cavities of the measuring plate and incubated for 30 min at room temperature whilst being shielded from light. The fluorescence intensity of the dye is then measured for 5 min and the fluorescence value F1 of each well is thus determined at a given, constant time. 15 μl of a […] KCl solution ([…]) are then added to each well. The change in fluorescence is subsequently measured until all relevant measured values have been obtained (mainly 5-30 min). At a given time after KCl application, a fluorescence value F2 is determined, in this case at the time of the fluorescence peak.
For calculation, the fluorescence intensity F2 is compared with the fluorescence intensity F1, and the agonistic activity of the target compound on the potassium channel is determined therefrom. F2 and F1 are calculated as follows: […]
In order to determine whether a substance has an agonistic activity,
[formula] for example, can be compared with
[formula] of control cells.
[formula] is determined by adding to the reaction batch only the buffer solution instead of the substance to be tested, determining the value F1K of the fluorescence intensity, adding the potassium ions as described above and measuring a value F2K of the fluorescence intensity. Then F2K and F1K are calculated as follows: […]
A substance has an agonistic activity on the potassium channel if
[formula] is greater than
Independently of the comparison of
[formula] it is also possible to conclude that a target compound has an agonistic activity if an increase in
[formula] is to be observed as the dosage of the target compound increases. […]

[2] = biological target: T1, hKCNQ2/3; assay: Voltage-clamp (patch-clamp) measurements on stably transfected hKCNQ2/3 CHO-K1 cell line; assay type: cell-based; set-up: expressed in transfected cells; host or cells: CHO-K1 (stably transfected); details: 10 μM test substance at −40 mV, current increase normalised against retigabine (10 μM), read-out: Patch-clamp % Efficacy @ 10 μM (Retigabine = 100%)
Description: Voltage-Clamp Measurements
In order to confirm a KCNQ2/3 agonistic action of the substances electrophysiologically, patch-clamp measurements (Hamill O P, Marty A, Neher E, Sakmann B, Sigworth F J: Improved patch-clamp techniques for high-resolution current recording from cells and cell-free membrane patches, Pfluger's Arch. 1981 August; 391(2):85-100) were performed in voltage-clamp mode on a stably transfected hKCNQ2/3 CHO-K1 cell line. After formation of the gigaseal the cells were first clamped at a holding potential of −60 mV. Depolarising voltage jumps up to a potential of +20 mV were then applied (increment: 20 mV, duration: 1 second) in order to confirm the functional expression of KCNQ2/3-typical currents. The substances were tested at a potential of −40 mV. First of all the current increase induced by retigabine (10 μM) at −40 mV was recorded on each cell as a positive control. After completely washing out the retigabine effect (duration: 80 s) the test substance (10 μM) was applied. The current increase induced by the test substance was normalised against the retigabine effect and stated as the relative efficacy (see below).

[3] = tested on: rat; assay: Formalin test in the rat; assay type: in vivo, Sprague Dawley rats; details: phase II (21-27 min after formalin administration)
Description: The formalin test (Dubuisson, D. and Dennis, S. G., 1977, Pain, 4, 161-174) is a model for acute and chronic pain. In the tests described here, the chronic pain component (phase II of the formalin test; time interval 21-27 min after formalin administration) was analysed.
A single formalin injection into the dorsal side of one rear paw was used to induce a biphase nociceptive response in experimental animals allowed to move freely, and the response was recorded by observation of three clearly distinguishable behaviour patterns.
Formalin is administered subcutaneously in a volume of 50 μl and a concentration of 5% into the dorsal side of the right rear paw of each animal. The vehicle and the substances to be tested are administered intravenously 5 minutes before or orally 30 minutes before the formalin injection.
The specific behavioural changes, such as lifting and shaking the paw, shifting of weight by the animal and biting and licking responses, are observed and recorded continuously for 60 minutes after formalin administration. The behavioural changes are weighted differently (score 0-3) and a pain rate (PR) calculated using the formula below: PR=[(T0×0)+(T1×1)+(T2×2)+(T3×3)/180.
Sprague Dawley rats (Janvier, Belgium) are used as the phylum. The weight of the animals is between 180 and 200 g. The group size was n=10.

T1 sequence (O43526 whole entry): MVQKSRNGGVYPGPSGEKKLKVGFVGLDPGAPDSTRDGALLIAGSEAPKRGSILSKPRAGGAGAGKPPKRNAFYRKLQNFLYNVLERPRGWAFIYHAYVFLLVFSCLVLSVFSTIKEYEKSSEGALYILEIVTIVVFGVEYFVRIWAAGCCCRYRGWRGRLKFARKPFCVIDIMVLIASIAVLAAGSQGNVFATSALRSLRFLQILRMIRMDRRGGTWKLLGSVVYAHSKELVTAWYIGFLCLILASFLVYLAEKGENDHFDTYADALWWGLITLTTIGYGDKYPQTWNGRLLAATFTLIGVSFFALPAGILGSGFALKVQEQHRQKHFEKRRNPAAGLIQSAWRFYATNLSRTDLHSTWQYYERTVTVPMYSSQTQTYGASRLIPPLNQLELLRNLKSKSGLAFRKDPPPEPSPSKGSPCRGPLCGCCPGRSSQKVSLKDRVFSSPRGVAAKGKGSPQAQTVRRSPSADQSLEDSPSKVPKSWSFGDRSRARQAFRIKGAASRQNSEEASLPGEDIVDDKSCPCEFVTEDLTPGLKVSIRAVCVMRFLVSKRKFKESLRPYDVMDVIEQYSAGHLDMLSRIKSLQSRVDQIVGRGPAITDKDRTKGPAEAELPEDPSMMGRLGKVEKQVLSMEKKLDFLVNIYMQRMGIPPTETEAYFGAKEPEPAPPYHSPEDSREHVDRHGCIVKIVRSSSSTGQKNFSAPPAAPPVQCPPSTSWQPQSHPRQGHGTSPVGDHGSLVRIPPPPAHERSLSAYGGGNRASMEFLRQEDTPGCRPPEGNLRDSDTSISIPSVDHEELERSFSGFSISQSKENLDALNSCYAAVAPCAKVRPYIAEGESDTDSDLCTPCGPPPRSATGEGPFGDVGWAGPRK
T1 sequence (O43525 whole entry): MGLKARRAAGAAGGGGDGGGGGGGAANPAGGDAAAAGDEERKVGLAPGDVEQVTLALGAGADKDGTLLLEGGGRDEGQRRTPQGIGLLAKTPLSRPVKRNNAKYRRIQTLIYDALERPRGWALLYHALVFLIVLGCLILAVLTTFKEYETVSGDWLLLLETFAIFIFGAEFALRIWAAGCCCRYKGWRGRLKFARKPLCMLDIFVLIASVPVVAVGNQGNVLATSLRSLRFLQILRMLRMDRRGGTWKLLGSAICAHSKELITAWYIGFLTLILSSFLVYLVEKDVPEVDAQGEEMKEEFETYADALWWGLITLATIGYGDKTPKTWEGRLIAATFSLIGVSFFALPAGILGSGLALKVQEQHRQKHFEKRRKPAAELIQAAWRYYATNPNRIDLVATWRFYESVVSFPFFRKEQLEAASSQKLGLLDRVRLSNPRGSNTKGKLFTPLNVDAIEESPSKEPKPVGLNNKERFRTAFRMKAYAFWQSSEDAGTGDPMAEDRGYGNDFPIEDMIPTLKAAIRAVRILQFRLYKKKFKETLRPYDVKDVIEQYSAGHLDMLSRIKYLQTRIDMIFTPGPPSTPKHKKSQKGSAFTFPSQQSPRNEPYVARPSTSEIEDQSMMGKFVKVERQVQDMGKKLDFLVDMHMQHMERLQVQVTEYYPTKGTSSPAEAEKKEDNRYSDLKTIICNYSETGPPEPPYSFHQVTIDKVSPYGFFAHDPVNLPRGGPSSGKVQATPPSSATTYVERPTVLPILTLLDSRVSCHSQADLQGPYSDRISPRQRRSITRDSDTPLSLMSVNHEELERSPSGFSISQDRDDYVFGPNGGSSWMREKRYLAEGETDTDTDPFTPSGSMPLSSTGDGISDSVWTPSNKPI

Emax at 10 µM ([1]; 10 μM, relative to retigabine = 100%, read-out: Fluorimetry % Efficacy @ 10 μM (Retigabine = 100%)): 110%
EC50 [1]: 1900 nM
Emax at 10 µM [2]: 78%
SMILES: O=C(CCC(=O)N1CCc2ccccc2C1c1ccccc1)NCc1cccc(C(F)(F)F)c1 (stereo not shown) [Example compound 1, 4-Oxo-4-(1-phenyl-3,4-dihydroisoquinolin-2(1H)-yl)-N-(3-(trifluoromethyl)benzyl)butyric acid amide]
Formalin test rat i.v. @ 4.64 mg/kg % Reduction of nociceptive behaviour [3]: 40%
